# Measurements reported in ChEMBL document CHEMBL1141108, “Alkyl-substituted polyaminohydroxamic acids: a novel class of targeted histone deacetylase inhibitors” (J Med Chem, 2005).
# Molecular target: Histone deacetylase
# Experiment: In vitro residual activity against Histone deacetylase (HDAC) at 1 uM concentration
row,residual activity,SMILES
1,80.2%,Br.O=C(CCCCC(=O)NCCCNCCCCNCCC(c1ccccc1)c1ccccc1)NO
2,55.8%,Cc1ccc(CNCCCCNC(=O)CCCCC(=O)NO)cc1
3,59%,Br.O=C(CCCCC(=O)NCCCNCCCNCCCNCCCNCC1CCCCCC1)NO
4,26.1%,Br.O=C(CCCCCCC(=O)NCCCNCCCCNCCC(c1ccccc1)c1ccccc1)NO
5,25.1%,Br.CC(C)(C)c1ccc(CNCCCCNCCCNC(=O)CCCCC(=O)NO)cc1
6,50.6%,Br.CC(C)(C)c1ccc(CNCCCCNCCCNC(=O)CCCCCCC(=O)NO)cc1
7,46.8%,Cc1ccc(CNCCCCNC(=O)CCCCCCC(=O)NO)cc1.O=C(O)C(F)(F)F
8,98.5%,Br.CC(C)(C)c1ccc(CNCCCCNCCCNC(=O)CCCCC(=O)O)cc1

# More lines, now with the values behind:
row,SMILES,residual activity
1,CN(C)c1ccc(CN(CCCCN)C(=O)CCCCCCC(=O)NO)cc1.O=C(O)C(F)(F)F,84.4%
2,O=C(CCCCC(=O)NCCCCN(Cc1ccccc1-c1ccccc1)Cc1ccccc1-c1ccccc1)NO,96.3%
3,CN(C)c1ccc(CNCCCCNC(=O)CCCCC(=O)NO)cc1.O=C(O)C(F)(F)F,89.7%
4,Br.CN(C)c1ccc(CN(CCCNCCCCN)C(=O)CCCCC(=O)NO)cc1,40%
5,O=C(CCCCC(=O)NCCCCNCc1ccccc1-c1ccccc1)NO,83.7%
6,CN(C)c1ccc(CNCCCCNC(=O)CCCCCCC(=O)NO)cc1.O=C(O)C(F)(F)F,66.1%
